Measured values taken from PMC6813295, “A tumour-selective cascade activatable self-detained system for drug delivery and cancer imaging” (Nature Communications, 2019).

System: H460 tumour-bearing nude mice
Assay: In vivo antitumor efficacy and safety of treatment
Design: species or system mouse
Conditions: five times, n = 5
Description: Data are presented as mean ± s.d.
(1 picture or pasted object on this page, not shown here)

COc1cccc2c1C(=O)c1c(O)c3c(c(O)c1C2=O)C[C@@](O)(C(=O)CO)C[C@@H]3O[C@H]1C[C@H](N)[C@H](O)[C@H](C)O1 [DOX, doxorubicin]
mean tumour volume after 14 days (i.v. DOX dose 2.0 mg/kg, once every other day): 854 mm^3
median survival time (i.v. identical DOX dose 2.0 mg/kg, Kaplan–Meier): 12 days
